{"source": "patent US8895273B2", "about": "“Conversion of hexuronic acid to hexaric acid” (Teknologian Tutkimuskeskus VTT, priority 2008, dated 2014)", "key": {"[1]": {"test_system": "O=C[C@H](O)[C@@H](O)[C@H](O)[C@H](O)C(=O)O", "assay": "Michaelis-Menten characterization of the purified histidine-tagged D-galacturonic acid dehydrogenase (uro1)", "type": "biochemical, Agrobacterium tumefaciens", "conditions": "other: purified histidine-tagged enzyme; Michaelis-Menten constant of the substrate/cofactor; pH 7.5", "protocol": "(§1) The S. cerevisiae strain resulting from the Example 1 was then disintegrated by vortexing with glass beads and the yeast extract analysed for D-galacturonic acid dehydrogenase activity. In a control experiment a similar strain but with an empty plasmid was used. To assay the D-galacturonic acid dehydrogenase activity the crude cell extract was mixed with 0.5 mM NAD and 4 mM D-galacturonic acid in a 50 mM Tris pH 7.5 buffer containing 0.5 mM MgCl2. The activity was 0.12 units per mg of extracted protein. One unit is the activity that forms 1 μmol of product per minute. In the control strain no activity could be detected.\n(§2) The D-galacturonic acid dehydrogenase with a histidine-tag at the N-terminal end was produced in a similar manner as in the Example 1, except that the histidine-tag was introduced by PCR. To introduce the histidine tag the following primers were used 5′-[…]-3′ (SEQ ID NO:5) in sense direction and 5′-[…]-3′ (SEQ ID NO:6) in anti-sense.\n(§3) After the expression of the histidine-tagged protein in S. cerevisiae as described in the Example 1 the activity was measured as described in the Example 2. […] The histidine-tagged D-galacturonic acid dehydrogenase was then purified using a Ni-NTA-agarose (Qiagen) according to the instructions of the manufacturer. The purified enzyme gave a single band in an SDS PAGE.\n(§4) The purified protein was then used to estimate the Michaelis-Menten constants."}, "[2]": {"test_system": "O=C[C@H](O)[C@@H](O)[C@@H](O)[C@H](O)C(=O)O", "assay": "Michaelis-Menten characterization of the purified histidine-tagged D-galacturonic acid dehydrogenase (uro1)", "type": "biochemical, Agrobacterium tumefaciens", "conditions": "other: purified histidine-tagged enzyme; Michaelis-Menten constant of the substrate/cofactor; pH 7.5", "protocol": "as §1, §2, §3, §4"}, "[3]": {"target": "T1, D-galacturonic acid dehydrogenase (uronate dehydrogenase, EC 1.1.1.203, uro1) (Agrobacterium fabrum, UniProt Q7CRQ0)", "T1 construct": "histidine-tag (His6); made in house; host or cells: Saccharomyces cerevisiae CEN.PK; purified on Ni-NTA-agarose", "T1 sequence (Q7CRQ0 whole entry, added parts left off)": "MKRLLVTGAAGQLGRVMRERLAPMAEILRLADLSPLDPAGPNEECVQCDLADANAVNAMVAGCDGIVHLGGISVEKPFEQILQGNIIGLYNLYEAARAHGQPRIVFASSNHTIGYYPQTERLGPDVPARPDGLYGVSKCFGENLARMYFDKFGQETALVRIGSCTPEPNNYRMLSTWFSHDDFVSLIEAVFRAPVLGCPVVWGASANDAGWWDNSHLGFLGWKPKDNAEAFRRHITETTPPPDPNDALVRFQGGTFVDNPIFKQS", "assay": "Michaelis-Menten characterization of the purified histidine-tagged D-galacturonic acid dehydrogenase (uro1)", "type": "biochemical, Agrobacterium tumefaciens", "conditions": "for enzyme activity with the substrate: purified histidine-tagged protein", "protocol": "as §1, §2, §3, §4"}, "[4]": {"target": "T2, uronate dehydrogenase from Pseudomonas (GenBank EU377538) (Pseudomonas syringae pv. tomato, UniProt Q888H1)", "T2 construct": "The open reading frame was released by digestion with NcoI and SpeI; made in house; host or cells: Saccharomyces cerevisiae CEN.PK (crude cell extract)", "T2 sequence (Q888H1 whole entry)": "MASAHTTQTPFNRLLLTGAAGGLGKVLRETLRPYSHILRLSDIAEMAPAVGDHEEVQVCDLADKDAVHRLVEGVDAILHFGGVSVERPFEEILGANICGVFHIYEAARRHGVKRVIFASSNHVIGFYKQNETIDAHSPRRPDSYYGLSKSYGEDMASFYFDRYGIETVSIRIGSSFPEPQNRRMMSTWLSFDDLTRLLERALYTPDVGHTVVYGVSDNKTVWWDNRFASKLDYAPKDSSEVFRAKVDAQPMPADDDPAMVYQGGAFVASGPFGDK", "assay": "Enzyme activity of uronate dehydrogenase from Pseudomonas expressed in S. cerevisiae", "type": "biochemical, Pseudomonas syringae pv. tomato str. DC3000", "conditions": "yeast extract, with NAD, tested as in Example 2", "protocol": "as §1\nThe DNA coding for uronate dehydrogenase was custom-synthesised by GENEART. The codes for the same amino acid as the gene with the GenBank accession number EU377538. The DNA sequence is in the Sequence Listing SEQ ID NO: 19. It codes for the amino acid sequence SEQ ID NO:20.\nThe open reading frame was released by digestion with NcoI and SpeI. The resulting fragment was then ligated to the NcoI and NheI sites of the pYX212 (R&D Systems) which is a multicopy yeast expression vector with PGK1 promoter and URA3 selection marker. The resulting vector was then transfected to the S. cerevisiae strain CEN.PK as in the Example 1. The enzyme activity was then tested as in Example 2."}}}
{"compound": "D-galacturonic acid dehydrogenase (uronate dehydrogenase, EC 1.1.1.203, uro1) (Agrobacterium fabrum str. C58)", "values": [{"measurement": "Km", "setting": "[1]", "value": 1100, "unit": "µM"}, {"measurement": "Vmax", "setting": "[1]", "value": "221 units per mg of protein"}, {"measurement": "Km", "setting": "[2]", "value": 500, "unit": "µM"}, {"measurement": "Vmax", "setting": "[2]", "value": "124 units per mg of protein"}]}
{"compound": "O=C[C@H](O)[C@@H](O)[C@@H](O)[C@H](O)C(=O)O", "note": "[D-galacturonic acid]", "values": [{"measurement": "enzyme activity with the substrate", "setting": "[3]", "value": "active"}, {"measurement": "enzyme activity with the substrate", "setting": "[4]", "value": "showed activity"}]}
{"compound": "NC(=O)c1ccc[n+]([C@@H]2O[C@H](COP(=O)([O-])OP(=O)(O)OC[C@H]3O[C@@H](n4cnc5c(N)ncnc54)[C@H](O)[C@@H]3O)[C@@H](O)[C@H]2O)c1", "note": "[NAD]", "values": [{"measurement": "Km", "setting": "[3]; purified histidine-tagged enzyme, Michaelis-Menten constant of the substrate/cofactor", "value": 900, "unit": "µM"}, {"measurement": "Vmax", "setting": "[3]; purified histidine-tagged enzyme, one unit forms 1 μmol of product per minute", "value": "145 units per mg of protein"}]}
{"compound": "O=C[C@H](O)[C@@H](O)[C@H](O)[C@H](O)C(=O)O", "note": "[GlcUA, D-glucuronic acid]", "values": [{"measurement": "enzyme activity with the substrate", "setting": "[3]", "value": "active"}, {"measurement": "enzyme activity with the substrate", "setting": "[4]", "value": "showed activity"}]}
